Entries after “also recorded” stand apart in the source; their conditions may differ.
Columns and labels:
[1] = test system: Human PC3 (prostate cancer) cells; assay: Human PC3 subcutaneous tumors in nude, athymic mice, intratumoral injection; assay type: in vivo
Protocol: Human PC3 (prostate cancer) cells were implanted subcutaneously in nude, athymic mice. Following tumor development to a size of approximately 200 cubic millimeters, tumors were injected directly with 50 μl of 1.3 mM phosphokanamycin every Monday, Wednesday, and Friday for two weeks.
CRL: CD-lnu/nu Br mice (nude, athymic) were obtained from Charles River Animal Resources Facility. Human PC3 cells were grown in RPMI 1640 media containing 10% serum, 200 μl of this cell culture was diluted 1:1 with Matrigel (Collaborative Biomedical Products) such that the total number of cells after dilution were 2×10^6. The cells were then injected on the underside of the flank and the development of subcutaneous tumor size was monitored by measurement with Vernier calipers.
Therapy with the drugs was started when the tumor size reached 200 mm^3. The drugs were solubilized in PBS (0.35 g NaH2PO4, 1.06 g Na2HPO and 8.5 g in a total volume of 1 L, pH 7.2), pH was adjusted to 7.2 using phosphoric acid and filter sterilized before injection. 50 μl of the drug (1.3 mM phosphokanamycin) was administered by direct injection into the tumor every Monday, Wednesday, and Friday for two weeks. The tumor size was monitored by measurement with Vernier calipers. The mice were euthanized when the tumor size exceeded 1000 mm^3 or when the weight of the mice decreased by more than 15% of their starting weight. The tumor size was calculated using the following formula:
volume=[length×(width)^2]/2

CHO non-K1 cells = assay: DNA replication assay in permeabilized CHO non-K1 cells; assay type: cell-based; details: phosphokanamycin 100 μM, phosphoneomycin 10 μM (FIG. 7)
Protocol: CHO non-K1 cells were used for the DNA replication assay. Cells were grown to density of 2×10^7 cells/plate in MEM medium supplemented with fetal calf serum. The cells were in log phase and unsynchronized. The plates were washed three times with cold MEM medium and cells were scraped off the plates into eppendorf tubes. The cells were centrifuged at 2000 rpm for 3 mm at 4° C. From each plate approximately 100 μl of cells were obtained. The cell pellet was resuspended in an equal volume of replication buffer [100 mM HEPES (pH 7.8), 0.2 mM dGTP, 0.2 mM DATP, 0.2 mM dTTP, 0.4 mM GTP, 0.4 mM CTP, 0.4 mM UTP, 8 mM ATP, 20 mM MgCl2, 0.2 mg/ml BSA, 2 mM DTT, 30% glycerol]. The cell suspension (20 μl) was aliquoted to individual tubes. Aminoglycosides and phosphoaminoglycosides were then added to the required final concentration. The cells were permeabilized by the addition of 0.5 μl of 20% NP-40 detergent. To monitor replication, 2 μl of α[^32 P] dCTP (3000-6000 Ci/mmole activity) was added. The cells were incubated at 37° C. for 10 min and the reaction was stopped by addition of 200 μl of stop buffer [50 mM TrisCl (pH 8.0), 10 mM EDTA, 400 mM NaCl, 1% SDS]. The cells were further incubated at 37° C. for 2 hours.
The DNA was sheared by passing 5-10 times through a 23 gauge needle. […] After drying, the radioactivity was measured using a liquid scintillation counter (Beckman).

Leishmania chagasi = Leishmania chagasi culture growth; assay type: cell-based; details: FIGS. 12A-B
Protocol: Leishmania chagasi cells were grown in HO-MEM medium to a cell density of 1×10^6 cells/ml. 50 μl of drug were mixed with 50 μl of media in the first well of a 96 well micro titer plate. Serial, two-fold dilutions were then made by taking 50 μl of the solution in the first well and diluting it into the second well and this process was repeated through the 12 wells of an entire row of the 96 well plate. This gives a 2-fold difference in the concentration of the drug between the wells in that row. This procedure was repeated for all the inhibitors. 50 μl of Leishmania chagasi, at a cell density of 1×10^6 cells/ml, was then added to the wells. The micro titer plate was incubated at 30° C. under anaerobic conditions. Cells were counted under light microscope every 24 hours after addition of drugs.

## NC[C@H]1O[C@H](O[C@H]2[C@H](O)[C@@H](O[C@H]3O[C@H](CO)[C@@H](O)[C@H](N)[C@H]3O)[C@H](N)C[C@@H]2N)[C@H](O)[C@@H](OP(=O)(O)O)[C@@H]1O [phosphokanamycin, 3′-phosphokanamycin]
[1]; 50 μl of 1.3 mM into the tumor Mon/Wed/Fri for two weeks
  effect on tumors (in words): tumor cells were killed; also recorded: Tumors regress in size and ultimately disappear
[1]; metastasis had occurred before treatment
  remote lesions (metastasis) after treatment: no remote lesions are detected
[1]; relative to untreated controls
  longevity of treated mice: significant longevity relative to the untreated controls
[1]; treatments lasting as long as 8 weeks
  toxicity: no detectable toxicity
CHO non-K1 cells
  effect on DNA synthesis (in words): disrupted DNA synthesis
Leishmania chagasi
  killing of Leishmania cells (in words): clearly effective in killing the cells

From patent publication US6573060B1, “Methods and compositions for targeting DNA metabolic processes using aminoglycoside derivatives” (University of Virginia Patent Foundation, priority 1997, dated 2003)
